Results from US10266535B2, “Inhibitor of FLT3 kinase and use thereof” (HEFEI INSTITUTES OF PHYSICAL SCIENCE, CHINESE ACADEMY OF …, priority 2015, dated 2019).
pIC50: −log10 of the molar value. Where two headings read alike, the source gives them in different places.

Columns and labels:
pro-B cell BaF3 = test: Cell proliferation, Cell Titer-Glo, BaF3; type: cell-based; conditions: Mus musculus, incubated for 72 hours
Procedure, shortened: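 Proliferation of the engineered BaF3 lines was followed by measuring ATP in living cells with a CellTiter-Glo chemiluminescence viability kit, and the luminescent signal served as the count of viable cells.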

[1] = test system: MOLM-13 (expressing FLT3/ITD mutant gene and wild-type FLT3 gene); test: Cell proliferation, Cell Titer-Glo, MOLM-13; type: cell-based; conditions: Homo sapiens; for pIC50: MOLM-13, incubated for 72 hours, read-out: MOLM-13 IC50
Procedure, shortened: (§1)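 Read-out: luminescence from ATP in live cells (CellTiter-Glo), taken as viable cell number. Cell lines were built in-house.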

[2] = test system: BaF3-FLT3-ITD-D835Y (stably expressing FLT3/ITD D835Y mutant activated kinase); test: Cell proliferation, Cell Titer-Glo, BaF3-FLT3-ITD-D835Y; type: cell-based; conditions: Mus musculus; for pIC50: incubated for 72 hours, read-out: BaF3-FLT3-ITD-D835Y IC50
Description: (§2) The above cell lines were constructed by our laboratory.
(§3) The number of viable cells was determined by quantification of ATP in living cells using the Cell Titer-Glo® (Promega, USA) chemiluminescence cell viability assay kit.

[3] = test system: MV4-11 (expressing FLT3/ITD mutant gene); test: Cell proliferation, Cell Titer-Glo, MV4-11; type: cell-based; conditions: Homo sapiens; for pIC50: MV4-11, incubated for 72 hours, read-out: MV4-11 IC50
Procedure, shortened: as §1

[4] = test system: TEL-BaF3-EGFR (stably expressing EGFR kinase); test: Cell proliferation, Cell Titer-Glo, TEL-BaF3-EGFR; type: cell-based; conditions: Mus musculus; incubated for 72 hours
Description: as §2, §3

[5] = test system: BaF3-FLT3-ITD-F691L (stably expressing FLT3/ITD F691L mutant activated kinase); test: Cell proliferation, Cell Titer-Glo, BaF3-FLT3-ITD-F691L; type: cell-based; conditions: Mus musculus; for pIC50: incubated for 72 hours, read-out: BaF3-FLT3-ITD-F691L IC50
Description: as §2, §3

[6] = test system: TEL-BaF3-BLK (stably expressing BLK kinase); test: Cell proliferation, Cell Titer-Glo, TEL-BaF3-BLK; type: cell-based; conditions: Mus musculus; incubated for 72 hours
Procedure, shortened: (§4)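 Cells from the in-house-constructed BaF3 lines were grown with compound. Viability was then scored by chemiluminescent detection of cellular ATP.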

[7] = test system: TEL-BaF3-FLT3/ITD (stably expressing FLT3/ITD mutant activated kinase); test: Cell proliferation, Cell Titer-Glo, TEL-BaF3-FLT3/ITD; type: cell-based, mouse; conditions: Mus musculus, 72 h, incubated for 72 hours; read-out: TEL-BaF3-FLT3/ITD IC50
Procedure, shortened: as §4

BTK protein kinase = BTK protein kinase (Homo sapiens (Human), UniProt Q06187); test: In vitro inhibition activity (enzymatic activity), ADP-Glo, BTK; type: biochemical; conditions: ATP 10 μM
BTK protein kinase, sequence (Q06187 whole entry): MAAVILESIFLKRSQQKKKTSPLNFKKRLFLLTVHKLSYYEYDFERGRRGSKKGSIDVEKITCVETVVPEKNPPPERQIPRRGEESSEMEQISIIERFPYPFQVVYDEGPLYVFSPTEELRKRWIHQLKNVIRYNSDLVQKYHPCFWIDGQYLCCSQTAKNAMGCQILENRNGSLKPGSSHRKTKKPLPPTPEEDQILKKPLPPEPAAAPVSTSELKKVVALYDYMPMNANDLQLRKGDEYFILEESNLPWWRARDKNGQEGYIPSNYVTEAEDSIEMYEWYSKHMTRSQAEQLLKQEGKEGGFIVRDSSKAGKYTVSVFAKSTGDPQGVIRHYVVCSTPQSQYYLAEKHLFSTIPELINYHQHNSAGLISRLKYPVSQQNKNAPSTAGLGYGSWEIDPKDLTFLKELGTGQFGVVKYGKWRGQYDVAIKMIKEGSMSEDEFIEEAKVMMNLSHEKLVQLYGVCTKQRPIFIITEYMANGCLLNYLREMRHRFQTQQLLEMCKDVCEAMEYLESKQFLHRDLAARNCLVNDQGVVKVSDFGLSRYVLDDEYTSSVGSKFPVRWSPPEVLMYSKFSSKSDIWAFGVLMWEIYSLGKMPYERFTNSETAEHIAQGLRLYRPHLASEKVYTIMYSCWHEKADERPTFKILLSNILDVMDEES

[8] = test system: U937 (expressing wild-type FLT3 gene); test: Cell proliferation, Cell Titer-Glo, U937; type: cell-based, human; conditions: Homo sapiens, U-937, 72 h; for pIC50: incubated for 72 hours, read-out: U937 IC50
Procedure, shortened: as §1

[9] = test system: TEL-cKIT-BaF3 (stably expressing cKIT kinase); test: Cell proliferation, Cell Titer-Glo, TEL-cKIT-BaF3; type: cell-based; conditions: Mus musculus; incubated for 72 hours
Procedure, shortened: as §4

[10] = test system: TEL-JAK1-BaF3 (stably expressing JAK1 kinase); test: Cell proliferation, Cell Titer-Glo, TEL-JAK1-BaF3; type: cell-based; conditions: Mus musculus; incubated for 72 hours
Description: as §2, §3

[11] = test system: TPR-MET-BaF3 (stably expressing MET kinase); test: Cell proliferation, Cell Titer-Glo, TPR-MET-BaF3; type: cell-based; conditions: Mus musculus; incubated for 72 hours
Description: as §2, §3

[12] = test system: TEL-BaF3-BMX (stably expressing BMX kinase); test: Cell proliferation, Cell Titer-Glo, TEL-BaF3-BMX; type: cell-based; conditions: Mus musculus; incubated for 72 hours
Procedure, shortened: as §4

[13] = test system: TEL-BaF3-FLT3-D835Y (stably expressing FLT3 D835Y mutant activated kinase); test: Cell proliferation, Cell Titer-Glo, TEL-BaF3-FLT3-D835Y; type: cell-based; conditions: Mus musculus; for pIC50: incubated for 72 hours, read-out: TEL-BaF3-FLT3-D835Y IC50
Description: as §2, §3

[14] = test system: MOLM-14 (expressing FLT3/ITD mutant gene and wild-type FLT3 gene); test: Cell proliferation, Cell Titer-Glo, MOLM-14; type: cell-based; conditions: Homo sapiens; for pIC50: MOLM-14, incubated for 72 hours, read-out: MOLM-14 IC50
Description: as §2, §3

[15] = test system: OCI-AML-3 (expressing FLT3 A680V mutant gene); test: Cell proliferation, Cell Titer-Glo, OCI-AML3; type: cell-based; conditions: Homo sapiens, incubated for 72 hours
Procedure, shortened: as §1

Row | SMILES | pIC50 (pro-B cell BaF3) | pIC50 [1] | pIC50 [2] | pIC50 [3] | pIC50 [4] | pIC50 [5] | pIC50 [6] | pIC50 [7] | pIC50 (BTK protein kinase) | pIC50 [8] | pIC50 [9] | pIC50 [10] | pIC50 [11] | pIC50 [12] | pIC50 [13] | pIC50 [14] | other results
1 | NC(=O)C(=O)N1CCC[C@@H](n2nc(-c3ccc(Oc4ccccc4)cc3)c3c(N)ncnc32)C1 [Compound 5, (R)-2-(3-(4-amino-(4-phenoxyphenyl)-1H-pyrazolo[3,4-d]pyrimidin-1-yl)piperidin-1-yl)-2-oxamide] | < 5.00 | 7.07 | 6.49 | 6.92 | < 5.00 | 6.43 | 6.01 | 6.29 | 7.40 | 5.19 | 5.66 | 5.40 | 5.24 | 6.70 | 7.47 | 6.68 | 
2 | Nc1ncnc2c1c(-c1ccc(Oc3ccccc3)cc1)nn2[C@@H]1CCCN(C(=O)[C@H](N)Cc2c[nH]cn2)C1 [Compound 7, (R)-2-amino-1-((R)-3-(4-amino-(4-phenoxyphenyl)-1H-pyrazolo[3,4-d]pyrimidin-1-yl)piperidin-1-yl)-3-(1H-imidazol-4-yl)propan-1-one] | 6.36 | 8.92 | 6.96 | 8.00 | 6.00 | 6.60 | 7.29 | 8.05 | 7.57 | 6.27 | 6.46 | 6.43 | 6.28 | 6.48 | 6.52 | 7.64 | 
3 | Nc1ncnc2c1c(-c1ccc(Oc3ccccc3)cc1)nn2[C@@H]1CCCN(C(=O)[C@@H](N)Cc2ccc(O)cc2)C1 [Compound 11, (S)-2-amino-1-((R)-3-(4-amino-(4-phenoxyphenyl)-1H-pyrazolo[3,4-d]pyrimidin-1-yl)piperidin-1-yl)-3-(4-hydroxyphenyl)propan-1-one] | 6.02 | 7.92 | 6.55 | 7.66 | 5.66 | 6.59 | 7.05 | 7.32 |  | 5.47 | 6.08 | 6.47 | 5.85 | 6.36 | 7.70 | 7.34 | 
4 | Nc1ncnc2c1c(-c1ccc(Oc3ccccc3)cc1)nn2[C@@H]1CCCN(C(=O)N2CCNCC2)C1 [Compound 14, (R)-(3-(4-amino-(4-phenoxyphenyl)-1H-pyrazolo[3,4-d]pyrimidin-1-yl)piperidin-1-yl)(piperazin-1-yl)methanone] | 5.01 | 7.22 | 6.60 | 7.31 | 5.80 | 6.43 | 6.00 | 7.06 | 7.20 | 5.38 | 5.31 | 5.11 | 5.52 | 6.37 | 6.62 | 6.92 | 
5 | CC[C@@H](C)[C@@H](N)C(=O)N1CCC[C@@H](n2nc(-c3ccc(Oc4ccccc4)cc3)c3c(N)ncnc32)C1 [Compound 25, (2R,3R)-2-amino-1-((R)-3-(4-amino-(4-phenoxyphenyl)-1H-pyrazolo[3,4-d]pyrimidin-1-yl)piperidin-1-yl)-3-methylpentan-1-one] | 5.77 | 6.92 |  | 6.92 | 6.05 |  | 5.96 | 7.06 | 6.67 | 5.72 | 5.51 | 5.48 | 5.77 | 6.29 | 6.74 | 6.72 | 
6 | Nc1ncnc2c1c(-c1ccc(Oc3ccccc3)cc1)nn2[C@@H]1CCCN(C(=O)[C@H](N)Cc2ccccc2)C1 [Compound 26, (R)-2-amino-1-((R)-3-(4-amino-(4-phenoxyphenyl)-1H-pyrazolo[3,4-d]pyrimidin-1-yl)piperidin-1-yl)-3-phenylpropan-1-one] | 5.82 | 6.70 |  | 6.55 | 5.89 |  | 5.54 | 6.80 | 7.01 | 5.62 | 5.46 | 5.70 | 5.70 | 5.89 | 6.44 | 6.54 | 
7 | CC(C)C[C@@H](N)C(=O)N1CCC[C@@H](n2nc(-c3ccc(Oc4ccccc4)cc3)c3c(N)ncnc32)C1 [Compound 27, (R)-2-amino-1-((R)-3-(4-amino-(4-phenoxyphenyl)-1H-pyrazolo[3,4-d]pyrimidin-1-yl)piperidin-1-yl)-4-methylpentan-1-one] | 5.89 | 7.85 | 6.70 | 7.49 | 6.00 | 6.55 | 6.68 | 8.30 | 6.16 | 5.39 | 5.80 | 5.66 | 5.82 | 6.47 | 7.74 | 7.64 | 
8 | CS(=O)(=O)N1CCC[C@@H](n2nc(-c3ccc(Oc4ccccc4)cc3)c3c(N)ncnc32)C1 [Compound 30, (R)-1-(1-(methylsulfonyl)piperidin-3-yl)-3-(4-phenoxyphenyl)-1H-pyrazolo[3,4-d]pyrimidin-4-amine] | < 5.00 | 6.89 | 5.60 | 6.77 |  | 5.28 | 5.46 | 7.32 | 5.74 | < 5.00 | 5.36 |  | 5.03 | 6.85 | 6.19 | 6.59 | pIC50 [15]: < 5.00
9 | CN1CCC(C(=O)N2CCC[C@@H](n3nc(-c4ccc(Oc5ccccc5)cc4)c4c(N)ncnc43)C2)CC1 [Compound 33, (R)-(3-(4-amino-(4-phenoxyphenyl)-1H-pyrazolo[3,4-d]pyrimidin-1-yl)piperidin-1-yl)(1-methylpiperidin-4-yl)methanone] | 5.30 | 6.80 | 6.20 | 6.80 |  | 6.55 | 6.21 | 7.11 | 6.38 | < 5.00 | 5.70 |  | 5.84 | 7.15 | 6.85 | 6.66 | pIC50 [15]: 5.28
10 | NCC(=O)N1CCC[C@@H](n2nc(-c3ccc(Oc4ccccc4)cc3)c3c(N)ncnc32)C1 [Compound 43, (R)-2-amino-1-(3-(4-amino-(4-phenoxyphenyl)-1H-pyrazolo[3,4-d]pyrimidin-1-yl)piperidin-1-yl)ethanone] | 5.42 | 7.70 | 6.39 | 7.66 |  | 5.96 | 6.92 | 8.15 | 7.55 | 5.14 |  |  | 5.56 | 7.66 |  | 7.55 | pIC50 [15]: 5.22
11 | CS(=O)(=O)NC1CCC(n2nc(-c3ccc(Oc4ccccc4)cc3)c3c(N)ncnc32)CC1 (centres unmarked) [Compound 78, N-(4-(4-amino-3-(4-phenoxyphenyl)-1H-pyrazolo[3,4-d]pyrimidin-1-yl)cyclohexyl)methanesulfonamide] | 5.22 |  |  |  |  |  | 8.40 |  |  |  | 6.49 |  |  | 7.42 |  |  | IC50 ([1]; MOLM-13, 72 h, read-out: MOLM-13 IC50 [μM]): 0.019 µM; IC50 ([2]; 72 h, read-out: BaF3-FLT3-ITD-D835Y IC50 [μM]): 0.053 µM; IC50 ([3]; MV4-11, 72 h, read-out: MV4-11 IC50 [μM]): 0.018 µM; IC50 ([5]; 72 h, read-out: BaF3-FLT3-ITD-F691L IC50 [μM]): 0.27 µM; IC50 ([8]; read-out: U937 IC50 [μM], incubated for 72 hours): 3.6 µM; IC50 ([13]; 72 h, read-out: TEL-BaF3-FLT3-D835Y IC50 [μM]): 0.0076 µM; IC50 ([14]; MOLM-14, 72 h, read-out: MOLM-14 IC50 [μM]): 0.11 µM
